Consider one compound from the NIST ThermoML archive (doi:10.1021/acs.jced.8b01205).

Series [1] can be described thus: Molar enthalpy of transition or fusion. Particulars: Crystal; DSC.
The conditions of series [2]: Crystal; DSC.

Numbers after ± are expanded uncertainties.

With `N#CCC(N)=O` [2-cyanoethanamide], the “Molar enthalpy of transition or fusion” value in series [1] was determined as 5.41 ± 0.43 kcal/mol. Moreover, the Triple point temperature in series [2] stood at 392.84 ± 1.2 K.
